# Measurements from patent publication US8329843B2, “Method for producing amide compound” (Mitsui Chemicals, Inc., priority 2005, dated 2012).
# Test system: microbial cell containing a nitrile hydratase
# Assay type: biochemical
# Details: benzene 26 ppm or acrolein 2 ppm in raw material acrylonitrile; more wet microbial cell needed
# Procedure: There were prepared a 1-liter glass flask equipped with a stirrer as a first reactor and a Teflon (trademark) tube with an inside diameter of 5 mm and a length of 20 m as a second reactor. To the first reactor was charged 400 g of water in advance.
# In accordance with the method described in Japanese Patent Application Laid-Open Publication No. 2001-340091, a microbial cell containing a nitrile hydratase was cultured and the resulting wet microbial cell was suspended in a 0.3 mM-NaOH aqueous solution. The suspension and the acrylonitrile b were continuously fed into the first reactor under stirring at a rate of 49 g/h and 31 g/h, respectively. In addition, the reaction solution was continuously taken out from the first reactor at a rate of 80 g/h so that the liquid level of the first reactor was maintained constant. The liquid taken out was continuously fed into the second reactor at a rate of 80 g/h and the reaction was further performed in the second reactor. […]
# The amount of the wet microbial cell added to the 0.3 mM-NaOH aqueous solution was adjusted so that the conversion rate to acrylamide at the outlet of the first reactor was 90% or higher and the concentration of acrylonitrile at the outlet of the second reactor was at the detection limit or less (100 ppm or less). The conversion rate to acrylamide was determined by the analysis of HPLC. […]
row,SMILES,inhibition of reaction by impurity in acrylonitrile
1,C=CC=O [acrolein],inhibition of reaction by acrolein was confirmed
2,c1ccccc1 [benzene],inhibition of reaction by benzene was confirmed
